# In ChEMBL document CHEMBL2331361, “Sulfonylpiperidines as novel, antibacterial inhibitors of Gram-positive thymidylate kinase (TMK)” (Bioorg Med Chem Lett, 2013):
# Assays:
# Staphylococcus aureus [1] = assay: Antimicrobial activity against methicillin- and quinolone-sensitive Staphylococcus aureus ARC516; format: functional
# Staphylococcus aureus [2] = assay: Antimicrobial activity against methicillin- and quinolone-resistant Staphylococcus aureus ARC517; format: functional
# [3] = Inhibition of Streptococcus pneumoniae thymidylate kinase
# Streptococcus pneumoniae = assay: Antimicrobial activity against Streptococcus pneumoniae ARC548; format: functional
# [4] = Distribution co-efficient, log D of the compound; settings: octanol/water
# [5] = Inhibition of Staphylococcus aureus thymidylate kinase
# Streptococcus pyogenes = assay: Antimicrobial activity against Streptococcus pyogenes ARC838; format: functional
# Cytochrome P450 1A2 = Cytochrome P450 1A2 (Homo sapiens, UniProt P05177); assay: Inhibition of CYP1A2 (unknown origin); format: ADME
# Chain of Cytochrome P450 1A2 (P05177 whole entry): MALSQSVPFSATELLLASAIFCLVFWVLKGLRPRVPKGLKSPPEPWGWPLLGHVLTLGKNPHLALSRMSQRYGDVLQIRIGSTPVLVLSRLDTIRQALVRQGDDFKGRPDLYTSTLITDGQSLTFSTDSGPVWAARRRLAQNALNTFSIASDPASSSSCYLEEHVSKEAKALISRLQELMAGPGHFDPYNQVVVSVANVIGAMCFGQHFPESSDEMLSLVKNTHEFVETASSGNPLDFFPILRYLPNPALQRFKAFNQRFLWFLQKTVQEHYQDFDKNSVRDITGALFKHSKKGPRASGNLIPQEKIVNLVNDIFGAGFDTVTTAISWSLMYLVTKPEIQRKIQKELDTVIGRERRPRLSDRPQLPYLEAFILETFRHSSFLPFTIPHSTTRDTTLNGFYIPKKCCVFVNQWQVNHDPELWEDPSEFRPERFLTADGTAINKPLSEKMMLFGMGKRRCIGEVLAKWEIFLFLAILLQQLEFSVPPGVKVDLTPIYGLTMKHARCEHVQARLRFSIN
# Plasma = assay: Unbound fraction in human plasma; format: ADME, cell-free
# Haemophilus influenzae = assay: Antimicrobial activity against Haemophilus influenzae ARC446; format: functional
# [6] = tested on: Staphylococcus haemolyticus; assay: Antimicrobial activity against Staphylococcus haemolyticus; format: functional
# [7] = Cytotoxicity against sheep erythrocytes assessed hemolysis; format: cell-based, Ovis aries; settings: erythrocyte
# [8] = Cytotoxicity against human A549 cells; format: cell-based; settings: read-out: MIC
# Cytochrome P450 2C19 = Cytochrome P450 2C19 (Homo sapiens, UniProt P33261); assay: Inhibition of CYP2C19 (unknown origin); format: ADME
# Chain of Cytochrome P450 2C19 (P33261 whole entry): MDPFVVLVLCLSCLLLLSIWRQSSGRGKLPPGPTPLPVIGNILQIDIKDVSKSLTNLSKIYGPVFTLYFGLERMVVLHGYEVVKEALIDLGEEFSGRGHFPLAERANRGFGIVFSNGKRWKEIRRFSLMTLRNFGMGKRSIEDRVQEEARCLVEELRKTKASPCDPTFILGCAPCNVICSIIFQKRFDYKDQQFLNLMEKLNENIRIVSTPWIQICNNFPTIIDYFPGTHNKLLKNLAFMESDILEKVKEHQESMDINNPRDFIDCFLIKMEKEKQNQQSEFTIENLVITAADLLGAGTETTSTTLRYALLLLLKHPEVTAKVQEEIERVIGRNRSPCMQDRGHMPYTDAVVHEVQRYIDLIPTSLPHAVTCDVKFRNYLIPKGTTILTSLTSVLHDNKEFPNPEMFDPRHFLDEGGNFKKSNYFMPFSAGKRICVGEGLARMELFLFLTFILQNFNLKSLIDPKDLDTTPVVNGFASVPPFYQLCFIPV
# [9] = Equilibrium solubility of the compound at pH 7.4; format: physicochemical; settings: buffer
# [10] = Inhibition of Escherichia coli thymidylate kinase
# Cytochrome P450 2D6 = Cytochrome P450 2D6 (Homo sapiens, UniProt P10635); assay: Inhibition of CYP2D6 (unknown origin); format: ADME
# Chain of Cytochrome P450 2D6 (P10635 whole entry): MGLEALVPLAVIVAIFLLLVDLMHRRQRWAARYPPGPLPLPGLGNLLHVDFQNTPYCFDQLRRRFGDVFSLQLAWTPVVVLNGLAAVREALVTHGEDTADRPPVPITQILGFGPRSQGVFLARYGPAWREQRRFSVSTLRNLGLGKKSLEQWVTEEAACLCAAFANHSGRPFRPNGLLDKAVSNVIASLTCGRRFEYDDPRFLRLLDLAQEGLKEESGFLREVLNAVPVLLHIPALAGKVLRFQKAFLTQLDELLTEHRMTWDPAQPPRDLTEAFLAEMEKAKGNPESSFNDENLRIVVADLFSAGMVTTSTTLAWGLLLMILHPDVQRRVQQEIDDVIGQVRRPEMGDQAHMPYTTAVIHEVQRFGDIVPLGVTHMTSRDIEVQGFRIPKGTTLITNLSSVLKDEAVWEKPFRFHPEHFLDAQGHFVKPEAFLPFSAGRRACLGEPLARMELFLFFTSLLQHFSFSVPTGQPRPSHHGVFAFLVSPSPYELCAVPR
# Enterococcus faecalis = assay: Antimicrobial activity against vancomycin-resistant Enterococcus faecalis ARC1618; format: functional
# Escherichia coli = assay: Antimicrobial activity against Escherichia coli ARC523; format: functional
# Pseudomonas aeruginosa = assay: Antimicrobial activity against Pseudomonas aeruginosa ARC545; format: functional
# [11] = Intrinsic clearance in rat hepatocytes assessed per million cells; format: ADME, cell-based, Hepatocyte; settings: read-out: CLH
# [12] = tested on: Staphylococcus lugdunensis; assay: Antimicrobial activity against Staphylococcus lugdunensis; format: functional
# [13] = Intrinsic clearance in rat liver microsomes; format: ADME, Microsome; settings: read-out: CLH
# [14] = target: Voltage-gated inwardly rectifying potassium channel KCNH2 (Homo sapiens, UniProt Q12809); assay: Inhibition of human ERG
# Chain of Voltage-gated inwardly rectifying potassium channel KCNH2 (Q12809 whole entry): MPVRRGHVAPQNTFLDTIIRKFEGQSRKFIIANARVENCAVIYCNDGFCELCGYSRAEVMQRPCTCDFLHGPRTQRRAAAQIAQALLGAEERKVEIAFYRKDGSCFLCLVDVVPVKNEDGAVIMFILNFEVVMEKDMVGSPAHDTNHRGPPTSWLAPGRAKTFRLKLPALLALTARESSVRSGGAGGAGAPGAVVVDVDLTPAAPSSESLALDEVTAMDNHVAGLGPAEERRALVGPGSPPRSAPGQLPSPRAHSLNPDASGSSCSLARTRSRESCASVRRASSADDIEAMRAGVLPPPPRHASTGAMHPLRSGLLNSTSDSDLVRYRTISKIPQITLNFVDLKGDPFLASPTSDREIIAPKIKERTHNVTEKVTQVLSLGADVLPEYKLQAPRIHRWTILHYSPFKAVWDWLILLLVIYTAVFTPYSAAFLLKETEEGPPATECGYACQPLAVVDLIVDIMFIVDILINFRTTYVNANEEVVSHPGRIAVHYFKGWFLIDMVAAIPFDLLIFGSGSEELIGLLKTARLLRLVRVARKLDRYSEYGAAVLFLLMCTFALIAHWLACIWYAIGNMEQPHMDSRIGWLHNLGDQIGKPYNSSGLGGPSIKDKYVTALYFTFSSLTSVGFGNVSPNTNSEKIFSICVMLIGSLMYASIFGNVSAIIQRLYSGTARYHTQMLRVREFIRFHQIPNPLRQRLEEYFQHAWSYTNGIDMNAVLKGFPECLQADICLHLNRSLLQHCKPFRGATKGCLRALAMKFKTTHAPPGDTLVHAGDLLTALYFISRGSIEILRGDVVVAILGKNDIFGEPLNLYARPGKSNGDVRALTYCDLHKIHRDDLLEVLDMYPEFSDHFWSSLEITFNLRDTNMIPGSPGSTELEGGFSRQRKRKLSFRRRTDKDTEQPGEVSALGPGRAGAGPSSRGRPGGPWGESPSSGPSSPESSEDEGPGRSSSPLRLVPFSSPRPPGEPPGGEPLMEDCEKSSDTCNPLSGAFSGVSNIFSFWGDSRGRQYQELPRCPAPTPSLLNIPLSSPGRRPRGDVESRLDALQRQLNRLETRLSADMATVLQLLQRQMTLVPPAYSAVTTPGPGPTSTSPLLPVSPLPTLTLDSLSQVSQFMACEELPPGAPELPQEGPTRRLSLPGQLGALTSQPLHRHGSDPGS
# Enterococcus faecium = assay: Antimicrobial activity against linezolid-resistant Enterococcus faecium ARC1239; format: functional
# Cytochrome P450 3A4 = Cytochrome P450 3A4 (Homo sapiens, UniProt P08684); assay: Inhibition of CYP3A4 (unknown origin); format: ADME
# Chain of Cytochrome P450 3A4 (P08684 whole entry): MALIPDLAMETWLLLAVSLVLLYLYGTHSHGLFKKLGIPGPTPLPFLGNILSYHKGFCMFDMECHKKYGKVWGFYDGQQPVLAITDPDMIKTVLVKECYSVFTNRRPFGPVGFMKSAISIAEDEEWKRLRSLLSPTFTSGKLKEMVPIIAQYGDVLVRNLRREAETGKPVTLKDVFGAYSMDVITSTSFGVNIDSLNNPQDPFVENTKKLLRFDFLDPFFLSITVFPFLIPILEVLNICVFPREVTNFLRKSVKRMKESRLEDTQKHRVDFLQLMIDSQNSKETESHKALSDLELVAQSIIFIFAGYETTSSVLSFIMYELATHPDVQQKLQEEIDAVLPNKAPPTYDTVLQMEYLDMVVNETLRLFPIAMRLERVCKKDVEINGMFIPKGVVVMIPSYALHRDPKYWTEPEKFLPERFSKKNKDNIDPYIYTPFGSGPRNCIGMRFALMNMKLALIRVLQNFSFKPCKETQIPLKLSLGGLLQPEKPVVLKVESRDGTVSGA
# Candida albicans = assay: Antimicrobial activity against Candida albicans; format: functional
# Streptococcus agalactiae = assay: Antimicrobial activity against Streptococcus agalactiae; format: functional
# Thymidylate kinase = Thymidylate kinase (Homo sapiens, UniProt P23919); assay: Inhibition of human thymidylate kinase
# Chain of Thymidylate kinase (P23919 whole entry): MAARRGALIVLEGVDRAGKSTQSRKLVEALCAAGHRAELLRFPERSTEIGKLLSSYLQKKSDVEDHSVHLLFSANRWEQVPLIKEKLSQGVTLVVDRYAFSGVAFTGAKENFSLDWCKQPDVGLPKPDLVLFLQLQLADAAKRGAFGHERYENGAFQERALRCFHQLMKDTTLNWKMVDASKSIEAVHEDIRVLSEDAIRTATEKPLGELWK
# [15] = tested on: Staphylococcus epidermidis; assay: Antimicrobial activity against Staphylococcus epidermidis ARC323; format: functional
# Klebsiella pneumoniae = assay: Antimicrobial activity against Klebsiella pneumoniae ARC1865; format: functional
# Cytochrome P450 2C9 = Cytochrome P450 2C9 (Homo sapiens, UniProt P11712); assay: Inhibition of CYP2C9 (unknown origin); format: ADME
# Chain of Cytochrome P450 2C9 (P11712 whole entry): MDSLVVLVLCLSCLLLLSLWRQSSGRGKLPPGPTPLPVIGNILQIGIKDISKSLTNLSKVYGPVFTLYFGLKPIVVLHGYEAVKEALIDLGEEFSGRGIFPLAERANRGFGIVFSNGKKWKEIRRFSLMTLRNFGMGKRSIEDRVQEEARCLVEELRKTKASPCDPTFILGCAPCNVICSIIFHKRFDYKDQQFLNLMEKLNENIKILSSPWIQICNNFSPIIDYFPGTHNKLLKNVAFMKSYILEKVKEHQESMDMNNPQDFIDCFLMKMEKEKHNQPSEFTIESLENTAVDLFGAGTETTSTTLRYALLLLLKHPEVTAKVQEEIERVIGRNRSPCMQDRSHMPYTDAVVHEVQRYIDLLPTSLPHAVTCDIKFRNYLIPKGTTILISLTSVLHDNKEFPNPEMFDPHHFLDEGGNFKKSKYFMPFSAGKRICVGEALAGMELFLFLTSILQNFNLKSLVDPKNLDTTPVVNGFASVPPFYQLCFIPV
smiles,measurement,setting,value
Cc1cn([C@H]2CCCN(S(=O)(=O)c3ccc(O)c(Oc4cccc(F)c4)c3)C2)c(=O)[nH]c1=O,MIC,Staphylococcus aureus [1],16 µg/mL
same,MIC,Staphylococcus aureus [2],16 µg/mL
same,IC50,[3],4 nM
same,MIC,Streptococcus pneumoniae,0.25 µg/mL
same,logD,[4],1.6
same,IC50,[5],57 nM
Cc1cn([C@H]2CCCN(S(=O)(=O)c3ccc(CO)c(Oc4cccc(Cl)c4)c3)C2)c(=O)[nH]c1=O,MIC,Staphylococcus aureus [1],32 µg/mL
same,MIC,Staphylococcus aureus [2],64 µg/mL
same,IC50,[3],28 nM
same,MIC,Streptococcus pneumoniae,2 µg/mL
same,IC50,[5],610 nM
Cc1cn([C@H]2CCCN(S(=O)(=O)c3ccc(C(=O)O)c(Oc4cccc(Cl)c4)c3)C2)c(=O)[nH]c1=O,MIC,Staphylococcus aureus [1],> 64 µg/mL
same,MIC,Staphylococcus aureus [2],> 64 µg/mL
same,IC50,[3],1 nM
same,MIC,Streptococcus pneumoniae,2 µg/mL
same,logD,[4],-1.3
same,IC50,[5],2 nM
Cc1cn([C@H]2CCCN(S(=O)(=O)c3ccc(C(=O)O)c(Oc4ccc(Cl)c(Cl)c4)c3)C2)c(=O)[nH]c1=O,MIC,Staphylococcus aureus [1],> 64 µg/mL
same,MIC,Staphylococcus aureus [2],> 64 µg/mL
same,IC50,[3],< 6 nM
same,MIC,Streptococcus pneumoniae,4 µg/mL
same,logD,[4],-0.9
same,IC50,[5],23 nM
Cc1cn([C@H]2CCCN(S(=O)(=O)c3ccc(C#N)c(Oc4cccc(Cl)c4)c3)C2)c(=O)[nH]c1=O,MIC,Staphylococcus aureus [1],> 64 µg/mL
same,MIC,Staphylococcus aureus [2],> 64 µg/mL
same,IC50,[3],23 nM
same,MIC,Streptococcus pneumoniae,2 µg/mL
same,logD,[4],1
same,IC50,[5],530 nM
Cc1cn([C@H]2CCCN(S(=O)(=O)c3ccc(O)c(Oc4ccc(Cl)cc4)c3)C2)c(=O)[nH]c1=O,MIC,Staphylococcus aureus [1],1 µg/mL
same,MIC,Staphylococcus aureus [2],2 µg/mL
same,IC50,[3],8 nM
same,MIC,Streptococcus pneumoniae,0.5 µg/mL
same,logD,[4],2.1
same,IC50,[5],18 nM
Cc1cn([C@H]2CCCN(S(=O)(=O)c3ccc(C(N)=O)c(Oc4cccc(Cl)c4)c3)C2)c(=O)[nH]c1=O,MIC,Staphylococcus aureus [1],> 64 µg/mL
same,MIC,Staphylococcus aureus [2],> 64 µg/mL
same,IC50,[3],10 nM
same,MIC,Streptococcus pneumoniae,2 µg/mL
same,logD,[4],2
same,IC50,[5],784 nM
Cc1cn([C@H]2CCCN(S(=O)(=O)c3ccc(O)c(Oc4ccccc4)c3)C2)c(=O)[nH]c1=O,MIC,Staphylococcus aureus [1],16 µg/mL
same,MIC,Staphylococcus aureus [2],16 µg/mL
same,IC50,[3],14 nM
same,MIC,Streptococcus pneumoniae,0.5 µg/mL
same,logD,[4],1.5
same,IC50,[5],255 nM
Cc1cn([C@H]2CCCN(S(=O)(=O)c3ccc(O)c(Oc4cc(F)cc(Cl)c4)c3)C2)c(=O)[nH]c1=O,MIC,Staphylococcus aureus [1],1 µg/mL
same,MIC,Staphylococcus aureus [2],1 µg/mL
same,IC50,[3],0.7 nM
same,MIC,Streptococcus pneumoniae,0.05 µg/mL
same,IC50,[5],12 nM
Cc1cc(Oc2cc(S(=O)(=O)N3CCC[C@H](n4cc(C)c(=O)[nH]c4=O)C3)ccc2O)ccc1Cl,MIC,Staphylococcus aureus [1],1 µg/mL
same,MIC,Staphylococcus aureus [2],0.5 µg/mL
same,IC50,[3],18 nM
same,MIC,Streptococcus pneumoniae,0.25 µg/mL
same,logD,[4],2.4
same,IC50,[5],3 nM
C[C@H]1COc2c(N3CCN(C)CC3)c(F)cc3c(=O)c(C(=O)O)cn1c23.C[C@H]1COc2c(N3CCN(C)CC3)c(F)cc3c(=O)c(C(=O)O)cn1c23.O [LEVOFLOXACIN],MIC,Streptococcus pyogenes,0.25 µg/mL
same,MIC90,Staphylococcus aureus [2],16 µg/mL
Cc1cn([C@H]2CCCN(S(=O)(=O)c3ccc(O)c(Oc4cccc(Cl)c4)c3)C2)c(=O)[nH]c1=O,IC50,Cytochrome P450 1A2,> 20000 nM
same,Fu,Plasma,1%
same,MIC90,Streptococcus pyogenes,0.5 µg/mL
same,MIC,Haemophilus influenzae,> 64 µg/mL
same,MIC,Staphylococcus aureus [1],0.25 µg/mL
same,MIC,[6],0.03 µg/mL
same,MIC,Staphylococcus aureus [2],0.5 µg/mL
same,MIC90,Staphylococcus aureus [2],0.5 µg/mL
same,MIC,[7],> 64 µg/mL
same,MCC,[8],> 64 µg/mL
same,IC50,Cytochrome P450 2C19,> 20000 nM
same,solubility thermodynamic,[9],193 µM
same,IC50,[10],4500 nM
same,IC50,Cytochrome P450 2D6,> 20000 nM
same,MIC,Enterococcus faecalis,0.5 µg/mL
same,MIC,Escherichia coli,> 64 µg/mL
same,MIC,Pseudomonas aeruginosa,> 64 µg/mL
same,hepatocyte CLint,[11],45 µL/min/1e6 cells
same,MIC,[12],0.016 µg/mL
same,MIC,Streptococcus pneumoniae,0.03 µg/mL
same,MIC90,Streptococcus pneumoniae,0.06 µg/mL
same,microsomal CLint,[13],27 µL/min/mg
same,IC50,[14],27000 nM
same,logD,[4],2.1
same,MIC,Enterococcus faecium,0.13 µg/mL
same,IC50,Cytochrome P450 3A4,> 20000 nM
same,MIC,Candida albicans,> 64 µg/mL
same,MIC,Streptococcus agalactiae,0.5 µg/mL
same,IC50,Thymidylate kinase,> 200000 nM
same,MIC,[15],2 µg/mL
same,MIC,Klebsiella pneumoniae,> 64 µg/mL
same,IC50,Cytochrome P450 2C9,> 20000 nM
COc1ccc(S(=O)(=O)N2CCC[C@H](n3cc(C)c(=O)[nH]c3=O)C2)cc1Oc1cccc(Cl)c1,MIC,Staphylococcus aureus [1],> 64 µg/mL
same,MIC,Staphylococcus aureus [2],16 µg/mL
same,IC50,[3],6 nM
same,MIC,Streptococcus pneumoniae,2 µg/mL
same,IC50,[5],358 nM
Cc1cn([C@H]2CCCN(S(=O)(=O)c3cccc(Oc4ccccc4)c3)C2)c(=O)[nH]c1=O,MIC,Staphylococcus aureus [1],> 64 µg/mL
same,IC50,[3],20900 nM
same,MIC,Streptococcus pneumoniae,> 64 µg/mL
same,IC50,[5],81500 nM
Cc1cn([C@H]2CCCN(S(=O)(=O)c3ccc(O)c(Oc4cccc(C(F)(F)F)c4)c3)C2)c(=O)[nH]c1=O,MIC,Staphylococcus aureus [1],2 µg/mL
same,MIC,Staphylococcus aureus [2],2 µg/mL
same,IC50,[3],3 nM
same,MIC,Streptococcus pneumoniae,0.1 µg/mL
same,logD,[4],2.3
same,IC50,[5],64 nM
Cc1cn([C@H]2CCCN(S(=O)(=O)c3cccc(Oc4ccc(Cl)c(Cl)c4)c3)C2)c(=O)[nH]c1=O,MIC,Staphylococcus aureus [1],4 µg/mL
same,MIC,Staphylococcus aureus [2],4 µg/mL
same,IC50,[3],292 nM
same,MIC,Streptococcus pneumoniae,4 µg/mL
same,logD,[4],> 3.5
same,IC50,[5],2780 nM
Cc1cccc(Oc2cc(S(=O)(=O)N3CCC[C@H](n4cc(C)c(=O)[nH]c4=O)C3)ccc2C(=O)O)c1,MIC,Staphylococcus aureus [1],> 64 µg/mL
same,MIC,Staphylococcus aureus [2],> 64 µg/mL
same,IC50,[3],6 nM
same,MIC,Streptococcus pneumoniae,16 µg/mL
same,logD,[4],-1.6
Cc1cn([C@H]2CCCN(S(=O)(=O)c3ccc(O)c(Oc4cccc(Br)c4)c3)C2)c(=O)[nH]c1=O,MIC,Staphylococcus aureus [1],1 µg/mL
same,MIC,Staphylococcus aureus [2],0.5 µg/mL
same,IC50,[3],0.7 nM
same,MIC,Streptococcus pneumoniae,0.1 µg/mL
same,logD,[4],2.3
same,IC50,[5],2 nM
